Data on 2 molecules can be found in patent US12122811B2, “BDNF mimetic peptide amphiphiles” (Northwestern University, priority 2018, dated 2024).

Positions of bridges follow the written chain, without caps; N, C: chain ends. Non-standard residues stand in square brackets, D forms with d. Residues, ends and D or L forms follow the SMILES beside them. Chains are numbered I, II in the order given. *: point of attachment. PEG6 = NCCOCCOCCOCCOCCOCCOCCC(=O)O; Palmitoyl = CCCCCCCCCCCCCCCC(=O)*

For one test, the system named is MAPK pathway (pErk 1/2). Description: MAPK pathway activation, western blot of phosphorylated Erk (pErk 1/2). The format is cell-based, mouse. To be noted: 6 h of treatment, vs control conditions. Here is the method: For western blot, cells were cultured in 6 well plates at a density of approximately 900,000 cells/well for 14 DIV before being treated. Treatments were added for 2, 4, 6, 8, 12 or 24 h in vitro before protein was harvested. For TrkB inhibitor studies, cells were cultured for 14 DIV and then treated with a TrkB specific inhibitor, K-252a (Sigma Aldrich), for 1 hour prior to being treated with the different conditions mentioned above. Protein was extracted after six hours of treatment.
Western Blot. Protein was extracted from primary neuronal cultures with Halt Protease and Phosphatase Inhibitor Cocktail (Thermo Scientific) and a BCA assay (Thermo Scientific) was performed to determine protein content of each sample. Cell protein was loaded into and separated using a 4-20% SDS-PAGE gel (Bio-Rad). It was then electrotransferred from the gel to a nitrocellulose membrane (Bio-Rad). The membranes were blocked with 5% milk solution (Bio-Rad) for 30 minutes followed by an overnight incubation with primary antibodies at 4° C. […] Protein signals were detected using Radiance Bioluminescent ECL substrate (Azure Biosystems). Densitometry analysis, standardized to total receptor content or Actin as a control for protein loading, was performed using ImageJ software.^3 For quantification, triplicate samples were analyzed and at least two different experiments were conducted.
(In general: Immunoblotting shows a protein as a band on a membrane.)

Test [1] relates to primary mouse cortical neurons. The test can be described thus: Multi-electrode array (MEA) electrophysiology of neuronal cultures. The class given is cell-based. To be noted: for spontaneous firing frequency: 30 days in vitro, relative to control condition; for network burst duration / spikes per network burst: over time, vs control media. The method, then:
Electrophysiology—Multi Electrode Array (MEA) Plates. For 2D electrophysiology studies, 12 well MEA plates with 64 electrodes per well were coated with PEI and laminin according to Axion Biosystems protocols.^5 Embryonic primary neurons were seeded at a density of 60,000 cells/well and cultured during 14 DIV. On day 14, cells were treated with BDNF protein, BDNF PA, BDNF Peptide, or starvation media. Every 5 days, half of the media was removed from each well and replaced with fresh media containing additional treatment. Spontaneous network and synchronized activity was recorded using Axion Biosystems Maestro 768 channel amplifier and Axion Integrated Studios (AxIS) v2.4 software. The amplifier recorded from all channels simultaneously using a gain of 1200× and a sampling rate of 12.5 kHz/channel. After passing the signal through a Butterworth band-pass filter (300-5000 Hz) on-line spike detection (threshold=6× the root-mean-square of noise on each channel) was done with the AxIS adaptive spike detector. All recordings were conducted at 37° C. with appropriate 5% CO2/95% O2. Spontaneous network activity was recorded for 5 min each day starting at 10 DIV. Active electrodes were defined as having >5 spikes/min and only wells with over 10 active electrodes during the baseline-recording period were used in the analysis. Synchronized activity was defined as spike and burst activity that occurred on 25% of the electrodes or more in a well within 100 ms of each other. […] All data reflects well-wide averages, where the reported value of n represents the number of wells per condition.

For `CCCCCCCCCCCCCCCC(=O)N[C@H](C(=O)N[C@H](C(=O)N[C@@H](C)C(=O)N[C@@H](C)C(=O)N[C@@H](CCC(=O)O)C(=O)N[C@@H](CCC(=O)O)C(=O)N[C@@H](CCC(=O)O)C(=O)N[C@@H](CCC(=O)O)C(=O)NCCOCCOCCOCCOCCOCCOCCC(=O)NCCCC[C@@H]1NC(=O)[C@H]2CCCN2C(=O)[C@H](CCCNC(=N)N)NC(=O)[C@H](CCCCN)NC(=O)[C@H](CCCCN)NC1=O)C(C)C)C(C)C` [BDNF PA, RKK(aK)(dP)-(PEG6 Spacer)-EEEEAAVV-C16 (SEQ ID NO: 5)] (I: Palmitoyl-VVAAEEEE[PEG6] / II: cyclo(KKKR[dP]); amide I:C-II:1), the “activation of the MAPK pathway (pErk 1/2)” value in the test with MAPK pathway (pErk 1/2) is “marked increase in activation”. Also, in test [1], the spontaneous firing frequency result is reported as “increased spontaneous firing frequency relative to the control condition”, the network burst duration result is listed as “longer network bursts” and the “spikes per network burst” value is listed as “significantly more spikes per network burst”.

B1: BDNF protein: Human/Murine/Rat BDNF protein (Peprotech) (protein, UniProt P23560 19-247, looked up)
Neurotrophic factor BDNF …: APMKEANIRGQGGLAYPGVRTHGTLESVNGPKAGSRGLTSLADTFEHVIEELLDEDQKVRPNEENNKDADLYTSRVMLSSQVPLEPPLLFLLEEYKNYLDAANMSMRVRRHSDPARRGELSVCDSISEWVTAADKKTAVDMSGGTVTVLEKVPVSKGQLKQYFYETKCNPMGYTKEGCRGIDKRHWNSQCRTTQSYVRALTMDSKKRIGWRFIRIDTSCVCTLTIKRGR
As for B1, the “activation of the MAPK pathway (pErk 1/2)” value in the test on MAPK pathway (pErk 1/2) is “marked increase in activation”. Also, in test [1], the spontaneous firing frequency result is “increased spontaneous firing frequency relative to the control condition”, the network burst duration result was “longer network bursts” and the “spikes per network burst” value was “significantly more spikes per network burst”.
